Experimental data: patent US20130090385A1, “NOVEL SPECIFIC CASPASE-10 INHIBITORS” (MERCK PATENT GESELLSCHAFT MIT BESCHRANKTER HAFTUNG, priority 2005, published 2013)
Where two headings read alike, the source gives them in different places.

How the values were obtained:
[1] = molecular target: T1, Recombinant human caspase-6 (Homo sapiens, UniProt P55212); experiment: delayed-time fluorescence caspase inhibition test, caspase-6
T1 sequence (P55212 24-293): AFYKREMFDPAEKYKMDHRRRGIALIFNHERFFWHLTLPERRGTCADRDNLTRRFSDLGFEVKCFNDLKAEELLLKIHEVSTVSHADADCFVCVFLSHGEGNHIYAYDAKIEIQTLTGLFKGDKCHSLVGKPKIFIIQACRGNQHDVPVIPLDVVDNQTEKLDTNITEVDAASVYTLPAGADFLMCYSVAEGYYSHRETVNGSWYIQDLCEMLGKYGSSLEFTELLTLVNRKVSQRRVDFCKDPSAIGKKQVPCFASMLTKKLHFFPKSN
Description: (§1) The substrate used is a tetrapeptide specific to this caspase, having at one of its ends a fluorescent europium marker (W1284) and at the other end a europium chelate fluorescence quencher (QSy-7): Eu-W1284-CIETDK-QSy-7.
(§2) The caspase cleaves the substrate, releasing the quencher. Thus, by excitation at 340 nm, the signal emitted by the fluorescence of the europium is read by WALLAC Victor^2 reader at 615 nm.
(§3) They are ready for use or may be divided into aliquots and stored at −80° C.. […] 20 μl of this solution are distributed per well of the assay plate. […] The assay is performed with 1 U of enzyme per well, by distributing 20 μl of the diluted solution per well. • The standard inhibitors: The standard inhibitors are dissolved in DMSO to a concentration of 10 mM. They are tested at IC20 and at IC50 on the caspases they inhibit (see following table).
(§4) They are then distributed in the wells using this solution to reach the final concentration of IC20 or IC50, i.e. 3 μl in 33 μl of final reaction volume (dilution 1/11). Thus, the final concentration of DMSO in the well is 0.3% (v/v) final. […] An intermediate dilution (1/6.6) is prepared in DMSO by diluting 10 μl of the concentrated solution in 66 μl of DMSO (final volume). […] The inhibitors are then distributed in the wells to reach the final screening concentration (10 μM), i.e. 3 μl in 33 μl of final reaction volume (dilution 1/11) and a final concentration of DMSO of 0.3% (v/v) in the well. • Protocol:
(§5) The incubation takes place for 3 hours 30 minutes at room temperature before reading the fluorescence in delayed time on the WALLAC Victor^2 reader with the filters corresponding to the fluorescence of europium (excitation filter: 340 nm, emission filter: 615 nm).
(§6) The inhibitors are diluted using solutions with concentrations of less than 20 mM in DMSO, and then prediluted in the caspase buffer. […] The specificity factor for caspase-10 is calculated as the following ratio:

[2] = molecular target: T2, Recombinant human caspase-2 (Homo sapiens, UniProt P42575); experiment: delayed-time fluorescence caspase inhibition test, caspase-2
T2 sequence (P42575 1-452): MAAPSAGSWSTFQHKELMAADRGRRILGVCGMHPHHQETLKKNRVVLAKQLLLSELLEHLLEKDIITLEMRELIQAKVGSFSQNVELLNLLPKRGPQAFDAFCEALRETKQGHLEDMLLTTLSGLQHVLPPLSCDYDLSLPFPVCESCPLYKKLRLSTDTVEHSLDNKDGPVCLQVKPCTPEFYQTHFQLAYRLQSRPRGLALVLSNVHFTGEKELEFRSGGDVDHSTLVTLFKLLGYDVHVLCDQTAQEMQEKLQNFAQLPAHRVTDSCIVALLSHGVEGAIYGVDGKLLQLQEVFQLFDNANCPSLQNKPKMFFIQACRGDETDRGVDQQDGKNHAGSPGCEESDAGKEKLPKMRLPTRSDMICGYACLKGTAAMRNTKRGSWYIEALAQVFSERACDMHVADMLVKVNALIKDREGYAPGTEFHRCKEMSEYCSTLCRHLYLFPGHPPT
Description: as §1, §2, §3, §4, §5, §6

[3] = molecular target: Recombinant human caspase-8 (Homo sapiens, UniProt Q14790); experiment: delayed-time fluorescence caspase inhibition test, caspase-8
Sequence of Recombinant human caspase-8 (Q14790 217-479): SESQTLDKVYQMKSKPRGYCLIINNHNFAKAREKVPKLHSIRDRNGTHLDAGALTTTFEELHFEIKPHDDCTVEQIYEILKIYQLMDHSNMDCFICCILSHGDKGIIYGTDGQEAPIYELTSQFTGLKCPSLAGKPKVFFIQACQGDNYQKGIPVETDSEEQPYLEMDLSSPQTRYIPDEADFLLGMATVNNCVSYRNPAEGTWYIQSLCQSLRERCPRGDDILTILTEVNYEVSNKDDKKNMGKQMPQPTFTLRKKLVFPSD
Description: as §1, §2, §3, §4, §5, §6

[4] = molecular target: T3, Recombinant human caspase-9 (Homo sapiens, UniProt P55211); experiment: delayed-time fluorescence caspase inhibition test, caspase-9
T3 sequence (P55211 1-416): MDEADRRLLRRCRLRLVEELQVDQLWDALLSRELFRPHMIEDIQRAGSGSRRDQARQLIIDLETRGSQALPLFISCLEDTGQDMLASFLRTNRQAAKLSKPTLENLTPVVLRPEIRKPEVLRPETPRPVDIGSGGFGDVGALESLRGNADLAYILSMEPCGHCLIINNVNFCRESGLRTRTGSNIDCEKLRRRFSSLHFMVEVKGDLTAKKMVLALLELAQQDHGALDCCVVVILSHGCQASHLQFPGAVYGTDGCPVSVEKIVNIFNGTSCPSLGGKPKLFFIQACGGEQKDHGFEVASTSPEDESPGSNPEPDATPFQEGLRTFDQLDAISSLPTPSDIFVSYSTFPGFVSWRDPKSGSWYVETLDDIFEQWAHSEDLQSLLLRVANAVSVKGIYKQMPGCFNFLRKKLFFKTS
Description: as §1, §2, §3, §4, §5, §6

[5] = molecular target: T4, Recombinant human caspase-3 (Homo sapiens, UniProt P42574); experiment: delayed-time fluorescence caspase inhibition test, caspase-3
T4 sequence (P42574 29-277): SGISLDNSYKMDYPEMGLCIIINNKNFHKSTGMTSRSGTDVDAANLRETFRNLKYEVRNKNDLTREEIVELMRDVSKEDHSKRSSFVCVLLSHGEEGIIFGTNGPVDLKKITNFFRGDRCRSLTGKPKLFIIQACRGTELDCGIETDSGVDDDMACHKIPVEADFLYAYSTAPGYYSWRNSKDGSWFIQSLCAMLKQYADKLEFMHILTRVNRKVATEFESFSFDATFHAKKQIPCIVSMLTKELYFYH
Description: as §1, §2
20 μl of this solution are distributed per well of the assay plate. […] The assay is performed with 1 U of enzyme per well, by distributing 20 μl of the diluted solution per well. • The standard inhibitors: The standard inhibitors are dissolved in DMSO to a concentration of 10 mM. They are tested at IC20 and at IC50 on the caspases they inhibit (see following table). The concentrations mentioned in the table are the final concentrations in the assay wells.
as §4
The volumes and the protocol were optimised for automated use.
as §5
The inhibitors are diluted using solutions with concentrations of less than 20 mM in DMSO, and then prediluted in the caspase buffer.

[6] = molecular target: T5, Recombinant human caspase-10 (Homo sapiens, UniProt Q92851); experiment: delayed-time fluorescence caspase inhibition test, caspase-10
T5 sequence (Q92851 220-521): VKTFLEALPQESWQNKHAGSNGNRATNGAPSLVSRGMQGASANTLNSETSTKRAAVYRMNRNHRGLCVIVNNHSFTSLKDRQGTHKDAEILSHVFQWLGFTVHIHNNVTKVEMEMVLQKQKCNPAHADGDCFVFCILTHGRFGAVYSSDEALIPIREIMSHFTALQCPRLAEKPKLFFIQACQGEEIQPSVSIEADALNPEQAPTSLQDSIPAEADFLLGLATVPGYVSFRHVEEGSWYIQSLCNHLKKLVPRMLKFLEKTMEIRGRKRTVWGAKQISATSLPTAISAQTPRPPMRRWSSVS
Description: as §1, §2, §3, §4, §5, §6

SMILES | IC50 [1] | IC50 [2] | IC50 [3] | IC50 [4] | IC50 [5] | IC50 [6] | IC50 ([1]; read-out: Inhibition IC50 Caspase-6, tested 100 nM to 200 μM, 1% DMSO, 3 h 30 min at room temperature) | IC50 ([2]; read-out: Inhibition IC50 Caspase-2, tested 100 nM to 200 μM, 1% DMSO, 3 h 30 min at room temperature) | IC50 ([3]; read-out: Inhibition IC50 Caspase-8, tested 100 nM to 200 μM, 1% DMSO, 3 h 30 min at room temperature) | IC50 ([4]; read-out: Inhibition IC50 Caspase-9, tested 100 nM to 200 μM, 1% DMSO, 3 h 30 min at room temperature) | IC50 ([5]; read-out: Inhibition IC50 Caspase-3, tested 100 nM to 200 μM, 1% DMSO, 3 h 30 min at room temperature) | IC50 ([6]; read-out: Inhibition IC50 Caspase-10, tested 100 nM to 200 μM, 1% DMSO, 3 h 30 min at room temperature)
O=S(=O)(NCC1(Cc2ccc(CCO)cc2)CCCC1)c1ccc2ccccc2c1 [Example 51] | > 200 µM | > 200 µM | > 200 µM | > 200 µM | > 200 µM | 0.281 µM |  |  |  |  |  | 
O=[N+]([O-])c1ccc(S(=O)(=O)NCC2(Cc3ccc(CCO)cc3)CCCC2)cc1 [Example 52] | > 200 µM | > 200 µM | > 200 µM | > 200 µM | > 200 µM | 3.69 µM |  |  |  |  |  | 
O=S(=O)(NCC1(Cc2ccc(CCO)cc2)CCC1)c1ccc(Cl)cc1 [Example 56] | > 200 µM | > 200 µM | > 200 µM | > 200 µM | > 200 µM | 0.989 µM |  |  |  |  |  | 
Cc1ccc(S(=O)(=O)NCC2(Cc3ccc(CCO)cc3)CCC2)cc1 [Example 57] | > 200 µM | > 200 µM | > 200 µM | > 200 µM | > 200 µM | 3.05 µM |  |  |  |  |  | 
O=S(=O)(NCC1(Cc2ccc(CCO)cc2)CCCC1)c1c(F)c(F)c(F)c(F)c1F [Example 58] | > 200 µM | > 200 µM | > 200 µM | 46.7 µM | > 200 µM | 0.143 µM |  |  |  |  |  | 
Cc1ccc(S(=O)(=O)NCC2(Cc3ccc(CCO)cc3)CCCC2)cc1 [Example 59] | > 200 µM | > 200 µM | > 200 µM | > 200 µM | > 200 µM | 4.06 µM |  |  |  |  |  | 
O=S(=O)(NCC1(Cc2ccc(CCO)cc2)CCCC1)c1cc(F)c(F)c(F)c1 [Example 61] | > 200 µM | > 200 µM | > 200 µM | > 200 µM | > 200 µM | 1.79 µM |  |  |  |  |  | 
O=S(=O)(NCC1(Cc2ccc(CCO)cc2)CCCC1)c1cc(Cl)cc(Cl)c1 [Example 62] | > 200 µM | > 200 µM | > 200 µM | > 200 µM | > 200 µM | 6.22 µM |  |  |  |  |  | 
Cc1cccc(S(=O)(=O)NCC2(Cc3ccc(CCO)cc3)CCCC2)c1 [Example 63] | > 200 µM | > 200 µM | > 200 µM | > 200 µM | > 200 µM | 6.56 µM |  |  |  |  |  | 
O=S(=O)(NCC1(Cc2ccc(CCO)cc2)CCCC1)c1ccc(Cl)c(C(F)(F)F)c1 [Example 65] | > 200 µM | > 200 µM | > 200 µM | > 25 µM | > 200 µM | 0.25 µM |  |  |  |  |  | 
O=S(=O)(NCC1(Cc2ccc(CCO)cc2)CCC1)c1c(F)c(F)c(F)c(F)c1F [Example 66] |  |  |  |  |  |  | > 200 µM | > 200 µM | > 200 µM | > 200 µM | > 200 µM | 0.393 µM
